Data from ChEMBL document CHEMBL4138146, “A Schmidt rearrangement-mediated synthesis of novel tetrahydro-benzo[1,4]diazepin-5-ones as potential anticancer and antiprotozoal agents” (Eur J Med Chem, 2017).
Converted amounts (≈) assume the structure as drawn.

Legend:
786-0 = test: Growth inhibition of human 786-0 cells incubated for 48 hrs by sulforhodamine B assay; format: functional; details: 786-0, 48 h
HL-60(TB) [1] = test: Growth inhibition of human HL-60(TB) cells incubated for 48 hrs by sulforhodamine B assay; format: functional; details: HL-60, 48 h
SNB-75 = test: Growth inhibition of human SNB75 cells incubated for 48 hrs by sulforhodamine B assay; format: functional; details: SNB-75, 48 h; for CC50: read-out: LC50 (the source's name)
NCI-H226 = test: Growth inhibition of human NCI-H226 cells assessed as cell growth at 10 uM incubated for 48 hrs by sulforhodamine B assay relative to control; format: functional; details: NCI-H226, 48 h, read-out: Activity
HCT-116 = test: Growth inhibition of human HCT116 cells assessed as cell growth at 10 uM incubated for 48 hrs by sulforhodamine B assay relative to control; format: functional; details: HCT-116, 48 h, read-out: Activity
UACC-257 = test: Growth inhibition of human UACC257 cells assessed as cell growth at 10 uM incubated for 48 hrs by sulforhodamine B assay relative to control; format: functional; details: UACC-257, 48 h, read-out: Activity
HCT-15 = test: Growth inhibition of human HCT15 cells assessed as cell growth at 10 uM incubated for 48 hrs by sulforhodamine B assay relative to control; format: functional; details: HCT-15, 48 h, read-out: Activity
M14 = test: Growth inhibition of human M14 cells assessed as cell growth at 10 uM incubated for 48 hrs by sulforhodamine B assay relative to control; format: functional; details: M14, 48 h, read-out: Activity
RXF 393 = test: Growth inhibition of human RXF393 cells assessed as cell growth at 10 uM incubated for 48 hrs by sulforhodamine B assay relative to control; format: functional; details: RXF 393, 48 h, read-out: Activity
NCI-H322M = test: Growth inhibition of human NCI-H322M cells assessed as cell growth at 10 uM incubated for 48 hrs by sulforhodamine B assay relative to control; format: functional; details: read-out: Activity
SR = test: Growth inhibition of human SR cells assessed as cell growth at 10 uM incubated for 48 hrs by sulforhodamine B assay relative to control; format: functional; details: read-out: Activity
HOP-92 = test: Growth inhibition of human HOP92 cells assessed as cell growth at 10 uM incubated for 48 hrs by sulforhodamine B assay relative to control; format: functional; details: HOP-92, 48 h, read-out: Activity
UO-31 = test: Growth inhibition of human UO31 cells assessed as cell growth at 10 uM incubated for 48 hrs by sulforhodamine B assay relative to control; format: functional; details: UO-31, 48 h, read-out: Activity
HCC 2998 = test: Growth inhibition of human HCC2998 cells assessed as cell growth at 10 uM incubated for 48 hrs by sulforhodamine B assay relative to control; format: functional; details: HCC 2998, 48 h, read-out: Activity
HOP-62 = test: Growth inhibition of human HOP62 cells assessed as cell growth at 10 uM incubated for 48 hrs by sulforhodamine B assay relative to control; format: functional; details: HOP-62, 48 h, read-out: Activity
IGROV-1 = test: Growth inhibition of human IGROV1 cells assessed as cell growth at 10 uM incubated for 48 hrs by sulforhodamine B assay relative to control; format: functional; details: IGROV-1, 48 h, read-out: Activity
DU-145 = test: Growth inhibition of human DU145 cells assessed as cell growth at 10 uM incubated for 48 hrs by sulforhodamine B assay relative to control; format: functional; details: DU-145, 48 h, read-out: Activity
MDA-MB-468 = test: Growth inhibition of human MDA-MB-468 cells assessed as cell growth at 10 uM incubated for 48 hrs by sulforhodamine B assay relative to control; format: functional; details: MDA-MB-468, 48 h, read-out: Activity
SN12C = test: Growth inhibition of human SN12C cells assessed as cell growth at 10 uM incubated for 48 hrs by sulforhodamine B assay relative to control; format: functional; details: read-out: Activity
EKVX = test: Growth inhibition of human EKVX cells assessed as cell growth at 10 uM incubated for 48 hrs by sulforhodamine B assay relative to control; format: functional; details: read-out: Activity
SF-268 = test: Growth inhibition of human SF268 cells assessed as cell growth at 10 uM incubated for 48 hrs by sulforhodamine B assay relative to control; format: functional; details: SF-268, 48 h, read-out: Activity
CCRF-CEM = test: Growth inhibition of human CCRF-CEM cells assessed as cell growth at 10 uM incubated for 48 hrs by sulforhodamine B assay relative to control; format: functional; details: read-out: Activity
SNB-19 = test: Growth inhibition of human SNB19 cells assessed as cell growth at 10 uM incubated for 48 hrs by sulforhodamine B assay relative to control; format: functional; details: SNB-19, 48 h, read-out: Activity
HL-60(TB) [2] = test: Growth inhibition of human HL-60(TB) cells assessed as cell growth at 10 uM incubated for 48 hrs by sulforhodamine B assay relative to control; format: functional; details: HL-60, 48 h, read-out: Activity
T47D = test: Growth inhibition of human T47D cells assessed as cell growth at 10 uM incubated for 48 hrs by sulforhodamine B assay relative to control; format: functional; details: read-out: Activity
SF-295 = test: Growth inhibition of human SF295 cells assessed as cell growth at 10 uM incubated for 48 hrs by sulforhodamine B assay relative to control; format: functional; details: SF-295, 48 h, read-out: Activity
K562 = test: Growth inhibition of human K562 cells assessed as cell growth at 10 uM incubated for 48 hrs by sulforhodamine B assay relative to control; format: functional; details: K562, 48 h, read-out: Activity
MCF7 = test: Growth inhibition of human MCF7 cells assessed as cell growth at 10 uM incubated for 48 hrs by sulforhodamine B assay relative to control; format: functional; details: MCF7, 48 h, read-out: Activity
OVCAR-5 = test: Growth inhibition of human OVCAR5 cells assessed as cell growth at 10 uM incubated for 48 hrs by sulforhodamine B assay relative to control; format: functional; details: OVCAR-5, 48 h, read-out: Activity
Plasmodium falciparum = test: Antimalarial activity against chloroquine-sensitive Plasmodium falciparum 3D7 incubated for 48 hrs by malstat reagent based LDH release assay; format: functional, organism-based; details: 3D7, 48 h
MOLT-4 = test: Growth inhibition of human MOLT4 cells assessed as cell growth at 10 uM incubated for 48 hrs by sulforhodamine B assay relative to control; format: functional; details: MOLT-4, 48 h, read-out: Activity
U-937 = test: Cytotoxicity against human U937 cells after 72 hrs by MTT assay; format: functional; details: U-937, 72 h, read-out: LC50 (the source's name)
Leishmania panamensis = test: Antileishmanial activity against EpiR/GFP fused Leishmania panamensis MHOM/CO/87/UA140 intracellular amastigotes infected in human […] cells after 72 hrs by flow cytometric method; format: functional, organism-based; details: MHOM/CO/87/UA140, 72 h
Trypanosoma cruzi = test: Antitrypanosomal activity against Trypanosoma cruzi Tulahuen amastigote forms infected in human U937 cells after 72 hrs by beta-galactosidase reporter gene assay; format: functional, organism-based; details: U-937, 72 h

Compound	growth at 10 µM (NCI-H226) [%]	growth at 10 µM (HCT-116) [%]	growth at 10 µM (HCT-15) [%]	growth at 10 µM (M14) [%]	growth at 10 µM (RXF 393) [%]	growth at 10 µM (NCI-H322M) [%]	growth at 10 µM (SR) [%]	growth at 10 µM (HOP-92) [%]	growth at 10 µM (UO-31) [%]	growth at 10 µM (HCC 2998) [%]	growth at 10 µM (HOP-62) [%]	growth at 10 µM (DU-145) [%]	growth at 10 µM (MDA-MB-468) [%]	growth at 10 µM (SN12C) [%]	growth at 10 µM (EKVX) [%]	growth at 10 µM (SF-268) [%]	growth at 10 µM (CCRF-CEM) [%]	growth at 10 µM (SNB-19) [%]	growth at 10 µM (HL-60(TB) [2]) [%]	growth at 10 µM (T47D) [%]	also measured
COc1cccc2c1C(=O)c1c(O)c3c(c(O)c1C2=O)C[C@@](O)(C(=O)CO)C[C@@H]3O[C@H]1C[C@H](N)[C@H](O)[C@H](C)O1 [DOXORUBICIN]	–	–	–	–	–	–	–	–	–	–	–	–	–	–	–	–	–	–	–	–	GI50 (786-0): 130 nM; GI50 (HL-60(TB) [1]): 120 nM; GI50 (SNB-75): 70 nM; CC50 (SNB-75): 3.3 µM
CCCCOc1nc2ccccc2cc1C1CNC(=O)c2ccccc2N1 (centres undefined)	0.7	15.6	15.3	-23.1	-14.3	47.2	19.8	48.9	41.3	56.5	23	10.7	-1.81	44.1	33	43.6	12.6	33.4	-8.72	20.9	growth at 10 µM (UACC-257): 57.2%; growth at 10 µM (IGROV-1): 38%; growth at 10 µM (SF-295): -5.68%; GI50 (786-0): 2840 nM; TGI (786-0): 10.4 µM; CC50 (786-0; read-out: LC50 (the source's name)): 4.65 µM; growth at 10 µM (K562): 12.8%; GI50 (HL-60(TB) [1]): 47 nM; LC50 (HL-60(TB) [1]): 65.4 µM; TGI (HL-60(TB) [1]): 384 nM; GI50 (SNB-75): 1810 nM; TGI (SNB-75): 13.7 µM; CC50 (SNB-75): 48.3 µM; growth at 10 µM (MCF7): 21.2%; growth at 10 µM (OVCAR-5): 55.3%
Cc1cccc2cc(C3CNC(=O)c4ccccc4N3)c(=O)[nH]c12 (centres undefined)	85.6	95.5	102	98.4	106	92	110	94.9	92.8	103	89.6	109	107	114	98.4	99.6	123	114	116	93.1	growth at 10 µM (UACC-257): 100%; growth at 10 µM (IGROV-1): 106%; growth at 10 µM (SF-295): 98.8%; growth at 10 µM (K562): 118%; growth at 10 µM (MCF7): 98.8%; growth at 10 µM (OVCAR-5): 102%
Cc1ccc2[nH]c(=O)c(C3CNC(=O)c4ccccc4N3)cc2c1 (centres undefined)	109	106	105	103	109	110	133	110	84.3	107	97.1	106	110	99.7	102	99.5	97.4	99.3	107	116	EC50 (Plasmodium falciparum): 60.9 µg/mL (≈ 191 µM); growth at 10 µM (MOLT-4): 113%; CC50 (U-937): 52.8 µg/mL (≈ 165 µM); EC50 (Leishmania panamensis): 22.9 µg/mL (≈ 71.8 µM); growth at 10 µM (SF-295): 103%; growth at 10 µM (K562): 111%; EC50 (Trypanosoma cruzi): 46.3 µg/mL (≈ 145 µM); growth at 10 µM (MCF7): 102%; growth at 10 µM (OVCAR-5): 92.9%
O=C1NCC(c2cc3ccc(Cl)cc3[nH]c2=O)Nc2ccccc21 (centres undefined)	79.7	87.8	103	96.8	97.2	98	115	74	88.7	105	81.3	110	96.5	111	95.2	106	134	108	111	66.5	EC50 (Plasmodium falciparum): 59.3 µg/mL (≈ 175 µM); growth at 10 µM (UACC-257): 78.4%; growth at 10 µM (IGROV-1): 96.5%; CC50 (U-937): > 200 µg/mL; EC50 (Leishmania panamensis): 77.9 µg/mL (≈ 229 µM); growth at 10 µM (SF-295): 107%; growth at 10 µM (K562): 124%; EC50 (Trypanosoma cruzi): 86 µg/mL (≈ 253 µM); growth at 10 µM (MCF7): 97.4%; growth at 10 µM (OVCAR-5): 97.7%
